Measurements taken from patent publication EP0059645A1, “Method and kit for identification of beta-lactamases” (NATIONAL RESEARCH DEVELOPMENT CORPORATION, priority 1981, dated 1982).
Marks after values point to notes of the source that are not given here.

Columns and labels:
Assay in all cases: Competitive assay with nitrocefin (RSAI)
[1] = molecular target: T1, Chromosomal, constitutive beta-lactamase enzyme (Enterobacter cloacae, UniProt P05364); format: biochemical, E. cloacae
T1 construct: Normally, therefore, the beta-lactamase has to be extracted from the cells for the purpose of the present invention; endogenous in cells

[2] = molecular target: PSE-1 (Pseudomonas aeruginosa, UniProt Q03170); format: biochemical, Ps.aerug. 1937E; design: Normally, therefore, the beta-lactamase has to be extracted from the cells for the purpose of the present invention; endogenous in cells
[3] = molecular target: PSE-2 (Pseudomonas aeruginosa, UniProt P14489); format: biochemical, Ps.aerug. 1973E; design: Normally, therefore, the beta-lactamase has to be extracted from the cells for the purpose of the present invention; endogenous in cells
[4] = molecular target: TEM-1 (Escherichia coli, UniProt P62593); format: biochemical, E. coli 2136E; design: the beta-lactamase has to be extracted from the cells for the purpose of the present invention; made in house; host or cells: E. coli 2136E (plasmid-bearing strain; crude cell extract)
[5] = molecular target: TEM-2 (Escherichia coli, UniProt P62593, Q37K); format: biochemical, E. coli 1725E
Excerpt: (§1) It is convenient to express the results in terms of a Relative Substrate Affinity Index (RSAI) value.
(§2) RSAI = Concentration of competing substrate which gives 50% inhibition of ring-opening hydrolysis of the chromogenic substrate
(§3) Concentration of chromogenic substrate in the assay A high RSAI value therefore indicates a low affinity of the beta-lactamase for that competing substrate, and therefore predicts resistance of a beta-lactam competing substrate to hydrolysis by the beta-lactamase. Low RSAI values, in contrast, predict sensitivity to hydrolysis by a beta-lactamase.
(§4) Beta-lactam antibiotics which bind to the TEM-2 enzyme compete with nitrocefin in the assay. […] . This concentration of ampicillin is a direct estimate of the relative affinity of the TEM-2 enzyme for ampicillin. […] . The RSAI value was therefore 1.3.

[6] = molecular target: OXA-3 (Pseudomonas aeruginosa, UniProt Q51429); format: biochemical, E. coli R57B; design: Normally, therefore, the beta-lactamase has to be extracted from the cells for the purpose of the present invention; endogenous in cells
[7] = molecular target: Chromosomal, hyper-induced beta-lactamase enzyme (Escherichia coli, UniProt P00811); format: biochemical, E. coli SNU35; design: Normally, therefore, the beta-lactamase has to be extracted from the cells for the purpose of the present invention; endogenous in cells; host or cells: E. coli SNU 35 (artificially produced strain)
[8] = molecular target: SHV-1 (Escherichia coli, UniProt P0AD63); format: biochemical, E. coli 2008E; design: the beta-lactamase has to be extracted from the cells for the purpose of the present invention; made in house; host or cells: E. coli 2008E (crude cell extract)
[9] = molecular target: T2, Chromosomal, induced beta-lactamase enzyme (Pseudomonas aeruginosa, UniProt P24735); format: biochemical, Ps.aerug. 1937E + ampicillin
T2 construct: Normally, therefore, the beta-lactamase has to be extracted from the cells for the purpose of the present invention; endogenous in cells; host or cells: Pseudomonas aeruginosa 1937E grown with ampicillin

[10] = molecular target: PSE-4 (Pseudomonas aeruginosa, UniProt P16897); format: biochemical, Ps.aerug. 1559E; design: Normally, therefore, the beta-lactamase has to be extracted from the cells for the purpose of the present invention; endogenous in cells
[11] = system: PSE-3; format: biochemical, Ps.aerug. 1920E
[12] = system: HMS-1; format: biochemical, E. coli 1946
[13] = molecular target: OXA-2 (Escherichia coli, UniProt P0A1V9); format: biochemical, E. coli R46; design: the beta-lactamase has to be extracted from the cells for the purpose of the present invention; made in house; host or cells: E. coli carrying R46 according to the earlier reading (crude cell extract)
[14] = molecular target: OXA-1 (Escherichia coli, UniProt P13661); format: biochemical, E. coli 1527E; design: the beta-lactamase has to be extracted from the cells for the purpose of the present invention; made in house; host or cells: E. coli 1527E according to the earlier reading (crude cell extract)
[15] = system: K1073; format: biochemical, Klebsiella 1073
Excerpt: as §1, §2, §3, §4

[16] = system: K10317; format: biochemical, K.aerog. 10317
Excerpt: as §1, §2, §3, §4

[17] = system: K17; format: biochemical, Klebsiella 17
Excerpt: as §1, §2, §3, §4

Structure (SMILES): CC1(C)[C@H](C(=O)O)N2C(=O)C[C@H]2S1(=O)=O [CP 45,899]
- RSAI [1]: 6.5*
- RSAI [2]: 0.036
- RSAI [3]: 16
- RSAI [4]: 0.02
- RSAI [5]: 0.04*
- RSAI [6]: 0.05*
- RSAI [7]: 1.7*
- RSAI [8]: 0.018*
- RSAI [9]: 2.5*
- RSAI [10]: 0.015*
- RSAI [11]: 0.0014
- RSAI [12]: 0.025*
- RSAI [13]: 0.15*
- RSAI [14]: 8*
- RSAI [15]: 0.18
- RSAI [16]: 0.08
- RSAI [17]: 0.5

Structure (SMILES): CC1(C)S[C@@H]2[C@H](NC(=O)[C@H](NC(=O)N3CCNC3=O)c3ccccc3)C(=O)N2[C@H]1C(=O)O [Azlo-cillin, Azlocillin]
- RSAI [1]: 0.05
- RSAI [2]: 0.23
- RSAI [3]: 2.64
- RSAI [4]: 1
- RSAI [5]: 1.1
- RSAI [6]: 9
- RSAI [7]: 0.02
- RSAI [8]: 1.6
- RSAI [9]: 0.05
- RSAI [10]: 0.36
- RSAI [11]: 0.54
- RSAI [12]: 0.42
- RSAI [13]: 19
- RSAI [14]: 1.4
- RSAI [15]: 1.9
- RSAI [16]: 3
- RSAI [17]: 1.1

Structure (SMILES): O=C(Cc1cccs1)N[C@@H]1C(=O)N2C(C(=O)[O-])=C(C[n+]3ccccc3)CS[C@H]12 [Cephalo-ridine, cephaloridine]
- RSAI [1]: 16
- RSAI [2]: 6
- RSAI [3]: 22
- RSAI [4]: 40
- RSAI [5]: 20
- RSAI [6]: 4.4
- RSAI [7]: 2*
- RSAI [8]: 30
- RSAI [10]: 3.5
- RSAI [11]: 2.2
- RSAI [12]: 6
- RSAI [13]: 4
- RSAI [14]: 60
- RSAI [15]: 19.2
- RSAI [16]: 30
- RSAI [17]: 5.4

Structure (SMILES): CC1=C(C(=O)O)N2C(=O)[C@@H](NC(=O)[C@H](N)C3=CCC=CC3)[C@H]2SC1 [Cephra-dine, cephradine]
- RSAI [1]: 1.8
- RSAI [2]: 46
- RSAI [3]: 4.2
- RSAI [4]: 35
- RSAI [5]: 50
- RSAI [6]: 100
- RSAI [7]: 0.12
- RSAI [8]: 15
- RSAI [9]: 1
- RSAI [10]: 80
- RSAI [11]: 3.6
- RSAI [12]: 25
- RSAI [13]: 86
- RSAI [14]: 420
- RSAI [15]: 25
- RSAI [16]: 18
- RSAI [17]: 10.4

Structure (SMILES): CO/N=C(\C(=O)N[C@@H]1C(=O)N2C(C(=O)O)=C(CSc3nc(=O)c(=O)[nH]n3C)CS[C@H]12)c1csc(N)n1 [RO-13 9904]
- RSAI [1]: 0.0003*
- RSAI [2]: 14
- RSAI [3]: 0.76
- RSAI [4]: 400
- RSAI [5]: 600
- RSAI [6]: 3
- RSAI [7]: 0.01
- RSAI [8]: 160
- RSAI [9]: 38
- RSAI [10]: 42
- RSAI [11]: 36
- RSAI [12]: 14
- RSAI [13]: 10
- RSAI [14]: 0.9
- RSAI [15]: 116
- RSAI [16]: 74
- RSAI [17]: 4

Structure (SMILES): Cc1nnc(SCC2=C(C(=O)O)N3C(=O)[C@@H](NC(=O)Cn4cnnn4)[C@H]3SC2)s1 [Cephalo-zolin, Cephalozolin]
- RSAI [1]: 17
- RSAI [2]: 2
- RSAI [3]: 1.4
- RSAI [4]: 30
- RSAI [5]: 48
- RSAI [6]: 3.4
- RSAI [7]: 46
- RSAI [8]: 15
- RSAI [9]: 15
- RSAI [10]: 2.6
- RSAI [11]: 3.2
- RSAI [12]: 0.8
- RSAI [13]: 3.4
- RSAI [14]: 10
- RSAI [15]: 16
- RSAI [16]: 30
- RSAI [17]: 1

Structure (SMILES): CCN1CCN(C(=O)N[C@@H](C(=O)N[C@@H]2C(=O)N3C(C(=O)O)=C(CSc4nnnn4C)CS[C@H]23)c2ccc(O)cc2)C(=O)C1=O [Cefopera-zone, cefoperazone]
- RSAI [1]: 1.3
- RSAI [2]: 0.019
- RSAI [3]: 0.48
- RSAI [4]: 8
- RSAI [5]: 10
- RSAI [6]: 2
- RSAI [7]: 1.9
- RSAI [8]: 4.5
- RSAI [9]: 0.5
- RSAI [10]: 0.014
- RSAI [11]: 0.07
- RSAI [12]: 0.2
- RSAI [13]: 2
- RSAI [14]: 4.5
- RSAI [15]: 2.2
- RSAI [16]: 5
- RSAI [17]: 0.006

Structure (SMILES): CC1(C)S[C@@H]2[C@H](NC(=O)[C@H](NC(=O)N3CCN(S(C)(=O)=O)C3=O)c3ccccc3)C(=O)N2[C@H]1C(=O)O [Mezlo-cillin, Mezlocillin]
- RSAI [1]: 0.4
- RSAI [2]: 1.2
- RSAI [3]: 4.75
- RSAI [4]: 3.6
- RSAI [5]: 6.3
- RSAI [6]: 19.2
- RSAI [7]: 0.3
- RSAI [8]: 3
- RSAI [9]: 0.26
- RSAI [10]: 0.9
- RSAI [11]: 0.8
- RSAI [12]: 0.9
- RSAI [13]: 19.4
- RSAI [14]: 1.9
- RSAI [15]: 5.5
- RSAI [16]: 16.4
- RSAI [17]: 1.3

Structure (SMILES): CO/N=C(\C(=O)N[C@@H]1C(=O)N2C(C(=O)O)=CCS[C@H]12)c1csc(N)n1 [Cefti-zoxime, ceftizoxime]
- RSAI [1]: 0.1
- RSAI [2]: 360
- RSAI [3]: 128
- RSAI [4]: 1000
- RSAI [5]: 1000
- RSAI [6]: 200
- RSAI [7]: 1.7
- RSAI [8]: 1400
- RSAI [9]: 500
- RSAI [10]: 380
- RSAI [11]: 120
- RSAI [12]: 66
- RSAI [13]: 110
- RSAI [14]: 50
- RSAI [15]: 720
- RSAI [16]: 630
- RSAI [17]: 220

Structure (SMILES): CC(C)(O/N=C(\C(=O)N[C@@H]1C(=O)N2C(C(=O)[O-])=C(C[n+]3ccccc3)CS[C@H]12)c1csc(N)n1)C(=O)O [Ceftazidime (GR 20,263), Ceftazidime]
- RSAI [1]: 0.1*
- RSAI [2]: 600
- RSAI [3]: >400
- RSAI [4]: >400
- RSAI [5]: 1500
- RSAI [6]: >400
- RSAI [7]: 0.2*
- RSAI [8]: 1140
- RSAI [9]: 0.46*
- RSAI [10]: 420
- RSAI [11]: 144
- RSAI [12]: 10
- RSAI [13]: 900
- RSAI [14]: >2000
- RSAI [15]: 1420
- RSAI [17]: 880
